Data: patent publication US8952024B2, “Herbicidal pyrimidone derivatives” (E I du Pont de Nemours and Company, priority 2009, dated 2015)

What was measured:
Format in all cases: in vivo
[1] = system: lambsquarters (Chenopodium album); experiment: Test B pre-/postemergence plant response; conditions: Postemergence
Description: (§1) Seeds of plant species selected from blackgrass (Alopecurus myosuroides), downy bromegrass (Bromus tectorum), green foxtail (Setaria viridis), Italian ryegrass (Lolium multiflorum), wheat (Triticum aestivum), wild oat (Avena fatua), deadnettle (henbit deadnettle, Lamium amplexicaule), galium (catchweed bedstraw, Galium aparine), bermudagrass (Cynodon dactylon), Surinam grass (Brachiaria decumbens), cocklebur (Xanthium strumarium), corn (Zea mays), large crabgrass (Digitaria sanguinalis), woolly cupgrass (Eriochloa villosa), giant foxtail (Setaria faberii), goosegrass (Eleusine indica), johnsongrass (Sorghum halepense), kochia (Kochia scoparia), lambsquarters (Chenopodium album), morningglory (Ipomoea coccinea), nightshade (eastern black nightshade, Solanum ptycanthum), yellow nutsedge (Cyperus esculentus), pigweed (Amaranthus retroflexus), ragweed (common ragweed, Ambrosia elatior), Russian thistle (Salsola kali), soybean (Glycine max), sunflower (common oilseed sunflower, Helianthus annuus) and velvetleaf (Abutilon theophrasti) were planted into a blend of loam soil and sand and treated preemergence with test compounds formulated in a non-phytotoxic solvent mixture which included a surfactant.
(§2) At the same time, plants selected from these crop and weed species and also winter barley (Hordeum vulgare), canarygrass (Phalaris minor), chickweed (Stellaria media) and windgrass (Apera spica-venti) were planted in pots containing Redi-Earth® planting medium (Scotts Company, 14111 Scottslawn Road, Marysville, Ohio 43041) comprising spaghnum peat moss, vermiculite, wetting agent and starter nutrients and treated with postemergence applications of some of the test chemicals formulated in the same manner. Plants ranged in height from 2 to 18 cm (1- to 4-leaf stage) for postemergence treatments.
(§3) Treated plants and controls were maintained in a greenhouse for 13 to 15 days, after which time all treated plants were visually evaluated and compared to controls. Plant response ratings, summarized in Table B, are based on a scale of 0 to 100 where 0 is no effect and 100 is complete control. A dash (-) response means no test result.

[2] = system: pigweed (Amaranthus retroflexus); experiment: Test B pre-/postemergence plant response; conditions: Postemergence
Description: as §1, §2, §3

[3] = system: Surinam grass (Brachiaria decumbens); experiment: Test B pre-/postemergence plant response; conditions: Postemergence
Description: as §1, §2, §3

[4] = system: yellow nutsedge (Cyperus esculentus); experiment: Test B pre-/postemergence plant response; conditions: Postemergence
Description: as §1, §2, §3

[5] = system: wheat (Triticum aestivum); experiment: Test B pre-/postemergence plant response; conditions: Postemergence
Description: as §1, §2, §3

[6] = system: bermudagrass (Cynodon dactylon); experiment: Test B pre-/postemergence plant response; conditions: Postemergence
Description: as §1, §2, §3

[7] = system: downy bromegrass (Bromus tectorum); experiment: Test B pre-/postemergence plant response; conditions: Postemergence
Description: as §1, §2, §3

[8] = system: woolly cupgrass (Eriochloa villosa); experiment: Test B pre-/postemergence plant response; conditions: Postemergence
Description: as §1, §2, §3

rice (Oryza sativa) = experiment: Test B flooded paddy test; conditions: Oryza sativa
Summary of the method: (§4)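 Plants were grown to the 2-leaf stage, then pots were flooded to 3 cm above the soil and compounds were applied directly into the paddy water. That depth was held throughout. After 13 to 15 days in a greenhouse, injury was visually rated against controls on a 0–100 scale.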

[9] = system: umbrella sedge (Cyperus difformis); experiment: Test B flooded paddy test; conditions: Cyperus difformis, 360 h
Summary of the method: as §4

[10] = system: barnyardgrass (Echinochloa crus-galli); experiment: Test B flooded paddy test; conditions: Echinochloa crus-galli, 360 h
Summary of the method: as §4

[11] = system: ducksalad (Heteranthera limosa); experiment: Test B flooded paddy test; conditions: Heteranthera limosa, 360 h
Summary of the method: as §4

COc1ccc(-n2c(-c3ccccc3)ncc(C(=O)C3=C(O)CCCC3=O)c2=O)cc1 [Compound 4, 5-[(2-hydroxy-6-oxo-cyclohexen-1-yl)carbonyl]-3-(4-methoxyphenyl)-2-phenyl-4(3H)-pyrimidinone]
pest or weed control at 31 g/ha ([1]; Chenopodium album, post-emergence, 31 g ai/ha, scale 0 to 100 (0 no effect, 100 complete control), read-out: Plant response rating, Lambsquarters): 98%
pest or weed control at 62 g/ha ([1]; Chenopodium album, post-emergence, 62 g ai/ha, scale 0 (no effect) to 100 (complete control), 13 to 15 days, read-out: Plant response rating, Lambsquarters): 100%
pest or weed control at 125 g/ha ([1]; Chenopodium album, post-emergence, 125 g ai/ha, visual rating after 13 to 15 days, scale 0 (no effect) to 100 (complete control)): 100%
Lambsquarters plant response rating ([1]; 250 g ai/ha, scale 0 to 100): 100
pest or weed control at 31 g/ha ([2]; Amaranthus retroflexus, post-emergence, 31 g ai/ha, scale 0 to 100 (0 no effect, 100 complete control), read-out: Plant response rating, Pigweed): 100%
pest or weed control at 62 g/ha ([2]; Amaranthus retroflexus, post-emergence, 62 g ai/ha, scale 0 (no effect) to 100 (complete control), 13 to 15 days, read-out: Plant response rating, Pigweed): 100%
pest or weed control at 125 g/ha ([2]; Amaranthus retroflexus, post-emergence, 125 g ai/ha, visual rating after 13 to 15 days, scale 0 (no effect) to 100 (complete control)): 100%
Pigweed plant response rating ([2]; 250 g ai/ha, scale 0 to 100): 100
Surinam Grass plant response rating ([3]; 250 g ai/ha, scale 0 to 100): 90
pest or weed control at 31 g/ha ([3]; Urochloa decumbens, post-emergence, 31 g ai/ha, scale 0 to 100 (0 no effect, 100 complete control), read-out: Plant response rating, Surinam Grass): 60%
pest or weed control at 62 g/ha ([3]; Urochloa decumbens, post-emergence, 62 g ai/ha, scale 0 (no effect) to 100 (complete control), 13 to 15 days, read-out: Plant response rating, Surinam Grass): 70%
pest or weed control at 125 g/ha ([3]; Urochloa decumbens, post-emergence, 125 g ai/ha, visual rating after 13 to 15 days, scale 0 (no effect) to 100 (complete control)): 75%
pest or weed control at 31 g/ha ([4]; Cyperus, post-emergence, 31 g ai/ha, scale 0 to 100 (0 no effect, 100 complete control), read-out: Plant response rating, Nutsedge, Yellow): 55%
pest or weed control at 62 g/ha ([4]; Cyperus, post-emergence, 62 g ai/ha, scale 0 (no effect) to 100 (complete control), 13 to 15 days, read-out: Plant response rating, Nutsedge, Yellow): 65%
pest or weed control at 125 g/ha ([4]; Cyperus, post-emergence, 125 g ai/ha, visual rating after 13 to 15 days, scale 0 (no effect) to 100 (complete control)): 75%
Nutsedge, Yellow plant response rating ([4]; 250 g ai/ha, scale 0 to 100): 80
Wheat plant response rating ([5]; 250 g ai/ha, scale 0 to 100): 70
plant injury at 31 g/ha ([5]; Triticum aestivum, post-emergence, 31 g ai/ha, scale 0 to 100 (0 no effect, 100 complete control), read-out: Plant response rating, Wheat): 5%
plant injury at 62 g/ha ([5]; Triticum aestivum, post-emergence, 62 g ai/ha, scale 0 (no effect) to 100 (complete control), 13 to 15 days, read-out: Plant response rating, Wheat): 5%
plant injury at 125 g/ha ([5]; Triticum aestivum, post-emergence, 125 g ai/ha, visual rating after 13 to 15 days, scale 0 (no effect) to 100 (complete control)): 50%
pest or weed control at 31 g/ha ([6]; Cynodon dactylon, post-emergence, 31 g ai/ha, scale 0 to 100 (0 no effect, 100 complete control), read-out: Plant response rating, Bermudagrass): 15%
pest or weed control at 62 g/ha ([6]; Cynodon dactylon, post-emergence, 62 g ai/ha, scale 0 (no effect) to 100 (complete control), 13 to 15 days, read-out: Plant response rating, Bermudagrass): 85%
pest or weed control at 125 g/ha ([6]; Cynodon dactylon, post-emergence, 125 g ai/ha, scale 0 to 100 (0 no effect, 100 complete control), 13 to 15 days, read-out: Plant response rating, Bermudagrass): 85%
Bermudagrass plant response rating ([6]; 250 g ai/ha, scale 0 to 100): 100
pest or weed control at 31 g/ha ([7]; Bromus tectorum, post-emergence, 31 g ai/ha, scale 0 to 100 (0 no effect, 100 complete control), read-out: Plant response rating, Bromegrass, Downy): 10%
pest or weed control at 62 g/ha ([7]; Bromus tectorum, post-emergence, 62 g ai/ha, scale 0 (no effect) to 100 (complete control), 13 to 15 days, read-out: Plant response rating, Bromegrass, Downy): 15%
pest or weed control at 125 g/ha ([7]; Bromus tectorum, post-emergence, 125 g ai/ha, visual rating after 13 to 15 days, scale 0 (no effect) to 100 (complete control)): 50%
Bromegrass, Downy plant response rating ([7]; 250 g ai/ha, scale 0 to 100): 55
pest or weed control at 31 g/ha ([8]; Eriochloa villosa, post-emergence, 31 g ai/ha, scale 0 to 100 (0 no effect, 100 complete control), read-out: Plant response rating, Cupgrass, Woolly): 75%
pest or weed control at 62 g/ha ([8]; Eriochloa villosa, post-emergence, 62 g ai/ha, scale 0 (no effect) to 100 (complete control), 13 to 15 days, read-out: Plant response rating, Cupgrass, Woolly): 95%
pest or weed control at 125 g/ha ([8]; Eriochloa villosa, post-emergence, 125 g ai/ha, visual rating after 13 to 15 days, scale 0 (no effect) to 100 (complete control)): 100%
Cupgrass, Woolly plant response rating ([8]; 250 g ai/ha, scale 0 to 100): 100
plant injury at 250 g/ha (rice (Oryza sativa); 250 g ai/ha, flooded paddy test, visual rating on 0 to 100 scale (0 no effect, 100 complete control) after 13 to 15 days, read-out: Plant response rating, Flood, Rice): 0%
plant injury at 31 g/ha (rice (Oryza sativa); Flood (flooded paddy test), 31 g ai/ha, scale of 0 to 100 where 0 is no effect and 100 is complete control, 13 to 15 days, read-out: Plant response rating, Rice): 0%
plant injury at 62 g/ha (rice (Oryza sativa); Flood (flooded paddy test), 62 g ai/ha, scale 0 to 100, 0 is no effect, 100 is complete control, 13 to 15 days, read-out: Plant response rating, Rice): 0%
plant injury at 125 g/ha (rice (Oryza sativa); Flood (flooded paddy test), 125 g ai/ha, scale 0 to 100, 0 is no effect, 100 is complete control, 13 to 15 days, read-out: Plant response rating, Rice): 0%
pest or weed control at 250 g/ha ([9]; 250 g ai/ha, flooded paddy test, visual rating on 0 to 100 scale (0 no effect, 100 complete control) after 13 to 15 days, read-out: Plant response rating, Flood, Sedge, Umbrella): 90%
pest or weed control at 31 g/ha ([9]; Flood (flooded paddy test), 31 g ai/ha, scale of 0 to 100 where 0 is no effect and 100 is complete control, 13 to 15 days, read-out: Plant response rating, Sedge, Umbrella): 50%
pest or weed control at 62 g/ha ([9]; Flood (flooded paddy test), 62 g ai/ha, scale 0 to 100, 0 is no effect, 100 is complete control, 13 to 15 days, read-out: Plant response rating, Sedge, Umbrella): 65%
pest or weed control at 125 g/ha ([9]; Flood (flooded paddy test), 125 g ai/ha, scale 0 to 100, 0 is no effect, 100 is complete control, 13 to 15 days, read-out: Plant response rating, Sedge, Umbrella): 80%
pest or weed control at 250 g/ha ([10]; 250 g ai/ha, flooded paddy test, visual rating on 0 to 100 scale (0 no effect, 100 complete control) after 13 to 15 days, read-out: Plant response rating, Flood, Barnyardgrass): 20%
pest or weed control at 31 g/ha ([10]; Flood (flooded paddy test), 31 g ai/ha, scale of 0 to 100 where 0 is no effect and 100 is complete control, 13 to 15 days, read-out: Plant response rating, Barnyardgrass): 0%
pest or weed control at 62 g/ha ([10]; Flood (flooded paddy test), 62 g ai/ha, scale 0 to 100, 0 is no effect, 100 is complete control, 13 to 15 days, read-out: Plant response rating, Barnyardgrass): 0%
pest or weed control at 125 g/ha ([10]; Flood (flooded paddy test), 125 g ai/ha, scale 0 to 100, 0 is no effect, 100 is complete control, 13 to 15 days, read-out: Plant response rating, Barnyardgrass): 0%
pest or weed control at 250 g/ha ([11]; 250 g ai/ha, flooded paddy test, visual rating on 0 to 100 scale (0 no effect, 100 complete control) after 13 to 15 days, read-out: Plant response rating, Flood, Ducksalad): 85%
pest or weed control at 31 g/ha ([11]; Flood (flooded paddy test), 31 g ai/ha, scale of 0 to 100 where 0 is no effect and 100 is complete control, 13 to 15 days, read-out: Plant response rating, Ducksalad): 20%
pest or weed control at 62 g/ha ([11]; Flood (flooded paddy test), 62 g ai/ha, scale 0 to 100, 0 is no effect, 100 is complete control, 13 to 15 days, read-out: Plant response rating, Ducksalad): 40%
pest or weed control at 125 g/ha ([11]; Flood (flooded paddy test), 125 g ai/ha, scale 0 to 100, 0 is no effect, 100 is complete control, 13 to 15 days, read-out: Plant response rating, Ducksalad): 75%
